The target in one test is Ba/F3 ERBB2 YVMA (Homo sapiens, UniProt P04626, DUP772-775, cells depend on it). The test is described as follows: Cell viability assay (CellTiter Glo), Ba/F3 cells engineered to express ERBB2 YVMA. The test is classed as cell-based, mouse. Particulars: Ba/F3 cells expressing human ERBB2 YVMA mutant, 72 hours, read-out: Ba/F3 ERBB2 YVMA, IC50. Put shortly: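 Ba/F3 cells (IL-3-independent via stable retroviral human ERBB2 YVMA) seeded 3000/well and given compound from about 10 μM to 0.51 nM in three-fold steps, DMSO ≤0.1%, 72 h at 37° C. Viability by CellTiter Glo luminescence, normalized to DMSO and media-only controls. Sigmoidal nonlinear fit.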

In test [1] the target is T1, phosphorylated ERBB2 (pERBB2) (Homo sapiens, UniProt P04626).
T1 construct: endogenous in cells; host or cells: BT-474
The test is described as follows: Detection of phosphorylated ERBB2 (pERBB2) by ELISA in BT-474 cells. The class given is cell-based. Particulars: four hour incubation. The method, boiled down:
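BT-474 cells were treated with compounds (fourfold dilutions, 10 μM to 0.01 nM final) for 4 h at 37 °C, then lysed. pERBB2 in lysates was quantified by ELISA with an HRP anti-phosphotyrosine detection antibody and TMB read at 450 nm; % relative activity was normalized to no-cell and 0.1% DMSO controls.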

Test [2] concerns the target T2, phosphorylated EGFR (pEGFR) (Homo sapiens, UniProt P00533).
T2 construct: performed to measure phosphorylated EGFR levels using A431 cells (10% FBS); endogenous in cells; host or cells: A431
The test is described as follows: Detection of phosphorylated EGFR (pEGFR) by AlphaLISA in EGF-stimulated A431 cells. Particulars: A431 cells (10% FBS), 4 hours incubation, EGF 30 ng/mL for 10 minutes. The test is classed as cell-based. Put shortly:
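pEGFR was quantified by AlphaLISA in lysates of A431 cells (10% FBS) given a 10 min pulse of EGF at 30 ng/mL after 4 h compound exposure at 37 °C. IC50 came from a four-parameter fit of % inhibition between DMSO and staurosporine controls.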

T2 sequence (P00533 25-1210): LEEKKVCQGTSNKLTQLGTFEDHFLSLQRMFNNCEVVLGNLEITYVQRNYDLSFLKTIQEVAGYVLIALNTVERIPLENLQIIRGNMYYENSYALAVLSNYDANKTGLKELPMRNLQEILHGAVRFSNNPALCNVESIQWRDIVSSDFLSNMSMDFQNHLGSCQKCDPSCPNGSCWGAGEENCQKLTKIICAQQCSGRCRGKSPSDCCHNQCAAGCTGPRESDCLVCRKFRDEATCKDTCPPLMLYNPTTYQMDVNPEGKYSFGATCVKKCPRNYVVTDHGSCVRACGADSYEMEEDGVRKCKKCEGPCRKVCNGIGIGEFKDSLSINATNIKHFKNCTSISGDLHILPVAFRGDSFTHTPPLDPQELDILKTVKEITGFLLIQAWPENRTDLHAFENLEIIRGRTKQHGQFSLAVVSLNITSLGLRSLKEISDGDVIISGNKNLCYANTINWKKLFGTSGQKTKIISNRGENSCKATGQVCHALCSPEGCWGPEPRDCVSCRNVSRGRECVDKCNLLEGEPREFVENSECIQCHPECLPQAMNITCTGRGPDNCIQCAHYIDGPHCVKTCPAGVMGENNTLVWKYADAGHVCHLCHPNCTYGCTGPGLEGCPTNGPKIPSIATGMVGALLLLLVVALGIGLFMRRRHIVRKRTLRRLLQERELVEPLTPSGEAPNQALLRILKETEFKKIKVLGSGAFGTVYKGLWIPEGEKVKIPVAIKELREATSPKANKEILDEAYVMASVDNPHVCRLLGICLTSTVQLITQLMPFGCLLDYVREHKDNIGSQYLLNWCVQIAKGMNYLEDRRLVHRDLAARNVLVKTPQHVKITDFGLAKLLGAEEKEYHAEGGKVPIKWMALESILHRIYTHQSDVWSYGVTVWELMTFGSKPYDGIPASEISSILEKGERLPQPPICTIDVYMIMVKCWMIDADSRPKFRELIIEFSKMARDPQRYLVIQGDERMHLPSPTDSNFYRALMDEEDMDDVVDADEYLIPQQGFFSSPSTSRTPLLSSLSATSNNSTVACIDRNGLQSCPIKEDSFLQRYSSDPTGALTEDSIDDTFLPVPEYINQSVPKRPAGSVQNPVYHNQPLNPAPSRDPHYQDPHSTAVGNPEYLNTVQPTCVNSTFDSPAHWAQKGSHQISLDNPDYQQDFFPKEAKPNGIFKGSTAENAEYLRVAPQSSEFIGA
T1 sequence (P04626 23-1255): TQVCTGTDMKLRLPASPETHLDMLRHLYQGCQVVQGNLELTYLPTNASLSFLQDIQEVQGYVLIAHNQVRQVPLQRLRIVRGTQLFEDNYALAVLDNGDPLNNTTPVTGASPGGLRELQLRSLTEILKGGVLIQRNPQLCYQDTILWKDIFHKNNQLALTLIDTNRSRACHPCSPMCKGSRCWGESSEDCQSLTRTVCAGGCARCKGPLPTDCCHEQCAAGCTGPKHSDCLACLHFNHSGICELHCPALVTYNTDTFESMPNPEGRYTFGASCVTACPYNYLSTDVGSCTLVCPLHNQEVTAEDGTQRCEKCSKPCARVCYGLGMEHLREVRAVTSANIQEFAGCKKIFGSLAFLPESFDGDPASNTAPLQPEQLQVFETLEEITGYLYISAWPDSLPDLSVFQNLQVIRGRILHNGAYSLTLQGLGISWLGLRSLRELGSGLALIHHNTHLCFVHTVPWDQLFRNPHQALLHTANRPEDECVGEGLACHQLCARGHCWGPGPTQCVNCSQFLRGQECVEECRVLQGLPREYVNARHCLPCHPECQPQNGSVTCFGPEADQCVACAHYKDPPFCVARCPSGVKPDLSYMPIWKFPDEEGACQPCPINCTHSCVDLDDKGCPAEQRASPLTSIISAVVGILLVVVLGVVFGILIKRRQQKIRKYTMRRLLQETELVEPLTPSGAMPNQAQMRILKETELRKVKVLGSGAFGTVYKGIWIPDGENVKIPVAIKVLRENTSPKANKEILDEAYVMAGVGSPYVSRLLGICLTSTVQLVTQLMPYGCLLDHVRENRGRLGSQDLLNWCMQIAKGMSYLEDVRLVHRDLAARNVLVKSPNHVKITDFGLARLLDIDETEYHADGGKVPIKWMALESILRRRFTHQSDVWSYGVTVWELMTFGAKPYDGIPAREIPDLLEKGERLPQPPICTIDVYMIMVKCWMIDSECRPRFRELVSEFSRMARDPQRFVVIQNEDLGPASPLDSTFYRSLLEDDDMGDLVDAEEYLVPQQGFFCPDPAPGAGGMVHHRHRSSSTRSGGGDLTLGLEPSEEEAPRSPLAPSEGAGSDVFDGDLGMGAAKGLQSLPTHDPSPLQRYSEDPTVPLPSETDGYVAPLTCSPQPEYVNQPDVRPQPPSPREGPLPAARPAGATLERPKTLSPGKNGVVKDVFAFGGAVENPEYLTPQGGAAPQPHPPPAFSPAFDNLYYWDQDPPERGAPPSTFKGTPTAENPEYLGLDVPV
Sequence of Ba/F3 ERBB2 YVMA (P04626 with tags, fused parts or gaps DUP772-775): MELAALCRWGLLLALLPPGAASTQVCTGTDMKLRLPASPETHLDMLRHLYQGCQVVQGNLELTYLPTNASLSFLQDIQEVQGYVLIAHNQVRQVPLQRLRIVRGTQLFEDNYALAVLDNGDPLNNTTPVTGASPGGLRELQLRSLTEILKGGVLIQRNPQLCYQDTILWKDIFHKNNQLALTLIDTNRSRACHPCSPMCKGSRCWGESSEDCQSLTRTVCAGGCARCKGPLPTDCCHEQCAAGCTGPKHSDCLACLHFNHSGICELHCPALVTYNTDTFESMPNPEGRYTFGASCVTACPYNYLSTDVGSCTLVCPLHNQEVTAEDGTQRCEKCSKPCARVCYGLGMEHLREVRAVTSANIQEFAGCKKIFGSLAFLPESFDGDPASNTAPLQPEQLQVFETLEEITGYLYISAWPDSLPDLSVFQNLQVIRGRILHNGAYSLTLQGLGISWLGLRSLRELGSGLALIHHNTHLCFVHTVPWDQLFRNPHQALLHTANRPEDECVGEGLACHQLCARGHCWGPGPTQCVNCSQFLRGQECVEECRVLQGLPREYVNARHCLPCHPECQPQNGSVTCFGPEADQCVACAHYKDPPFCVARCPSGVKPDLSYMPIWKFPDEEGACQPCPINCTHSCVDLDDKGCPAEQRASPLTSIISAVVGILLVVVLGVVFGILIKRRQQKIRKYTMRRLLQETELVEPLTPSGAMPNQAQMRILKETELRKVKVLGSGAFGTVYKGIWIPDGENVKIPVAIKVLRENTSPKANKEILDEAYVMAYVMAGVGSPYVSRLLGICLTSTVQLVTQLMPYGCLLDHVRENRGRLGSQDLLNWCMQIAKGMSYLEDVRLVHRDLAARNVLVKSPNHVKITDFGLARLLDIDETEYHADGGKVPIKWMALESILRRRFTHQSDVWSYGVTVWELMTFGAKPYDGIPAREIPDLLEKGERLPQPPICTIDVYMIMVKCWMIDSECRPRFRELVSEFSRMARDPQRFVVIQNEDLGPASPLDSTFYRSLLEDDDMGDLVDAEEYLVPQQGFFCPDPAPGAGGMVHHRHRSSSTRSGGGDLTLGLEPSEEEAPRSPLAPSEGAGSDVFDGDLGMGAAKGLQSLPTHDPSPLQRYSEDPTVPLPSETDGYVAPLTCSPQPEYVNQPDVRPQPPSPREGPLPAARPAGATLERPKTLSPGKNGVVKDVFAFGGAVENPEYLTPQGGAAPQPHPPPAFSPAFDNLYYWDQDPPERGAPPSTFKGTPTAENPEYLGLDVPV

Regarding `CN(C)C/C=C/C(=O)N1CCN2c3ccc4ncnc(Nc5ccc(Oc6ccn7ncnc7c6)c(F)c5)c4c3OC[C@@H]2C1` [Compound 94, (S,E)-1-(4-((4-([1,2,4]triazolo[1,5-a]pyridin-7-yloxy)-3-fluorophenyl)amino)-6a,7,9,10-tetrahydropyrazino[1′,2′:4,5][1,4]oxazino[2,3-f]quinazolin-8(6H)-yl)-4-(dimethylamino)but-2-en-1-one], the GI50 at Ba/F3 ERBB2 YVMA was 19.9 nM. For the same compound, the IC50 worked out at 19.6 nM in test [1] and 2160 nM in test [2].
For `CN(C)C/C=C/C(=O)N1CCN2c3ccc4ncnc(Nc5ccc(Oc6ccn7ncnc7c6)cc5F)c4c3OC[C@@H]2C1` [Compound 95, (S,E)-1-(4-((4-([1,2,4]triazolo[1,5-a]pyridin-7-yloxy)-2-fluorophenyl)amino)-6a,7,9,10-tetrahydropyrazino[1′,2′:4,5][1,4]oxazino[2,3-f]quinazolin-8(6H)-yl)-4-(dimethylamino)but-2-en-1-one], in that order: 19.6 nM, 32.3 nM and 2780 nM.
For the compound `CN(C)C/C=C/C(=O)N1CCN2C[C@@H]1COc1c2ccc2ncnc(Nc3cc(F)c(Oc4ccn5ncnc5c4)cc3F)c12` [Compound 96, (E)-1-((3R)-13-((4-([1,2,4]triazolo[1,5-a]pyridin-7-yloxy)-2,5-difluorophenyl)amino)-2,3,5,6-tetrahydro-4H-3,7-methano[1,4,7]oxadiazonino[2,3-f]quinazolin-4-yl)-4-(dimethylamino)but-2-en-1-one], the GI50 on Ba/F3 ERBB2 YVMA amounted to 9.12 nM. For the same compound, the figures for the half-maximal inhibitory concentration (IC50) in test [1] and in test [2] were 19.1 nM and 221 nM, respectively.
Turning to `CN(C)C/C=C/C(=O)N1CCN2c3ccc4ncnc(Nc5cc(F)c(Oc6ccn7ncnc7c6)cc5F)c4c3OC[C@H]2C1` [Compound 97, (R,E)-1-(4-((4-([1,2,4]triazolo[1,5-a]pyridin-7-yloxy)-2,5-difluorophenyl)amino)-6a,7,9,10-tetrahydropyrazino[1′,2′:4,5][1,4]oxazino[2,3-f]quinazolin-8(6H)-yl)-4-(dimethylamino)but-2-en-1-one], the GI50 at Ba/F3 ERBB2 YVMA was 3.6 nM. In addition, the concentration for half-maximal inhibition (IC50) in test [1] is 15.2 nM; in test [2], 8060 nM.
Regarding `CN(C)C/C=C/C(=O)N1CCN2c3ccc4ncnc(Nc5cc(F)c(Oc6ccn7ncnc7c6)cc5F)c4c3OC[C@@H]2C1` [Compound 98, (S,E)-1-(4-((4-([1,2,4]triazolo[1,5-a]pyridin-7-yloxy)-2,5-difluorophenyl)amino)-6a,7,9,10-tetrahydropyrazino[1′,2′:4,5][1,4]oxazino[2,3-f]quinazolin-8(6H)-yl)-4-(dimethylamino)but-2-en-1-one], on Ba/F3 ERBB2 YVMA, the GI50 was 16.6 nM. Also, the IC50 in test [1] is 60 nM; in test [2] it was greater than 10000 nM.
Turning to `Cc1cc(Nc2ncnc3cnc4c(c23)OC[C@@H]2CN(C(=O)/C=C/CN(C)C)CCN42)ccc1Oc1ccn2ncnc2c1` [Compound 112, (S,E)-1-(4-((4-([1,2,4]triazolo[1,5-a]pyridin-7-yloxy)-3-methylphenyl)amino)-6a,7,9,10-tetrahydropyrazino[1,2-d]pyrimido[5′,4′:4,5]pyrido[3,2-b][1,4]oxazin-8(6H)-yl)-4-(dimethylamino)but-2-en-1-one], on Ba/F3 ERBB2 YVMA, the GI50 worked out at 13.3 nM. Besides, the values for the IC50 in test [1] and in test [2] were 21.8 nM and 1170 nM, respectively.
Consider `Cc1cc(Nc2ncnc3cnc4c(c23)OC[C@H]2CN(C(=O)/C=C/CN(C)C)CCN42)ccc1Oc1ccn2ncnc2c1` [Compound 113, (R,E)-1-(4-((4-([1,2,4]triazolo[1,5-a]pyridin-7-yloxy)-3-methylphenyl)amino)-6a,7,9,10-tetrahydropyrazino[1,2-d]pyrimido[5′,4′:4,5]pyrido[3,2-b][1,4]oxazin-8(6H)-yl)-4-(dimethylamino)but-2-en-1-one], for which, on Ba/F3 ERBB2 YVMA, the GI50 was found to be 3.57 nM. Besides, the results for the IC50 in test [1] and in test [2] were 11.3 nM and 593 nM, respectively.
With `Cc1cc(Nc2ncnc3ccc4c(c23)OC[C@@H]2CN(C(=O)/C=C/C3CN(C)C3)CCN42)ccc1Oc1ccn2ncnc2c1` [Compound 114, (S,E)-1-(4-((4-([1,2,4]triazolo[1,5-a]pyridin-7-yloxy)-3-methylphenyl)amino)-6a,7,9,10-tetrahydropyrazino[1′,2′:4,5][1,4]oxazino[2,3-f]quinazolin-8(6H)-yl)-3-(1-methylazetidin-3-yl)prop-2-en-1-one formic acid], the GI50 on Ba/F3 ERBB2 YVMA turned out to be 172 nM. Besides, the figures for the IC50 in test [1] and in test [2] were 43.1 nM and greater than 10000 nM, respectively.
On to `CN(C)C/C=C/C(=O)N1CCN2c3ncc4ncnc(Nc5cc(F)c(Oc6ccn7ncnc7c6)cc5F)c4c3OC[C@H]2C1` [Compound 115, (R,E)-1-(4-((4-([1,2,4]triazolo[1,5-a]pyridin-7-yloxy)-2,5-difluorophenyl)amino)-6a,7,9,10-tetrahydropyrazino[1,2-d]pyrimido[5′,4′:4,5]pyrido[3,2-b][1,4]oxazin-8(6H)-yl)-4-(dimethylamino)but-2-en-1-one], for which the GI50 on Ba/F3 ERBB2 YVMA was found to be 7.22 nM. For the same compound, the IC50 in test [1] turned out to be 30.2 nM; in test [2], 4770 nM.
Turning to `Cc1cc(Nc2ncnc3ccc4c(c23)OC[C@H]2CN(C(=O)/C=C/CN(C)C)CCN42)c(F)cc1Oc1ccn2ncnc2c1` [Compound 116, (R,E)-1-(4-((4-([1,2,4]triazolo[1,5-a]pyridin-7-yloxy)-2-fluoro-5-methylphenyl)amino)-6a,7,9,10-tetrahydropyrazino[1′,2′:4,5][1,4]oxazino[2,3-f]quinazolin-8(6H)-yl)-4-(dimethylamino)but-2-en-1-one], at Ba/F3 ERBB2 YVMA, the GI50 worked out at 14 nM. The IC50 in test [1] turned out to be 10.9 nM; in test [2] it was 572 nM.
For `Cc1cc(Nc2ncnc3cnc4c(c23)OC[C@H]2CN(C(=O)/C=C/CN(C)C)CCN42)c(F)cc1Oc1ccn2ncnc2c1` [Compound 117, (R,E)-1-(4-((4-([1,2,4]triazolo[1,5-a]pyridin-7-yloxy)-2-fluoro-5-methylphenyl)amino)-6a,7,9,10-tetrahydropyrazino[1,2-d]pyrimido[5′,4′:4,5]pyrido[3,2-b][1,4]oxazin-8(6H)-yl)-4-(dimethylamino)but-2-en-1-one], in that order: 6.57 nM, 13.1 nM and 1510 nM.
For the compound `CN(C)C/C=C/C(=O)N1CCN2c3ccc4ncnc(Nc5ccc(Oc6ccn7ncnc7c6)c(F)c5)c4c3OC[C@H]2C1` [Compound 118, (R,E)-1-(4-((4-([1,2,4]triazolo[1,5-a]pyridin-7-yloxy)-3-fluorophenyl)amino)-6a,7,9,10-tetrahydropyrazino[1′,2′:4,5][1,4]oxazino[2,3-f]quinazolin-8(6H)-yl)-4-(dimethylamino)but-2-en-1-one], the GI50 at Ba/F3 ERBB2 YVMA stood at 35.7 nM. The IC50 in test [1] stood at 25 nM; in test [2] it was 3120 nM.
Turning to `CN(C)C/C=C/C(=O)N1CCN2c3ccc4ncnc(Nc5ccc(Oc6ccn7ncnc7c6)cc5F)c4c3OC[C@H]2C1` [Compound 119, (R,E)-1-(4-((4-([1,2,4]triazolo[1,5-a]pyridin-7-yloxy)-2-fluorophenyl)amino)-6a,7,9,10-tetrahydropyrazino[1′,2′:4,5][1,4]oxazino[2,3-f]quinazolin-8(6H)-yl)-4-(dimethylamino)but-2-en-1-one], the GI50 at Ba/F3 ERBB2 YVMA is 11.7 nM. The IC50 in test [1] was 29 nM; in test [2] it was 1950 nM.
Turning to `Cc1cc(Nc2ncnc3cnc4c(c23)OC[C@H]2CN(C)CCN42)ccc1Oc1ccc2c(c1)ncn2C` [Compound 120, (R)-8-methyl-N-(3-methyl-4-((1-methyl-1H-benzo[d]imidazol-5-yl)oxy)phenyl)-6,6a,7,8,9,10-hexahydropyrazino[1,2-d]pyrimido[5′,4′:4,5]pyrido[3,2-b][1,4]oxazin-4-amine], the GI50 on Ba/F3 ERBB2 YVMA is 44.3 nM. Also, the IC50 was 26.4 nM in test [1] and greater than 10000 nM in test [2].
For `Cc1cc(Nc2ncnc3cc4c(cc23)N2CCOC[C@H]2CO4)ccc1Oc1ccc2c(c1)ncn2C` [Compound 121, (S)—N-(3-methyl-4-((1-methyl-1H-benzo[d]imidazol-5-yl)oxy)phenyl)-1,2,4a,5-tetrahydro-4H-[1,4]oxazino[4′,3′:4,5][1,4]oxazino[3,2-g]quinazolin-11-amine], in that order: 71 nM, 27.2 nM and greater than 10000 nM.
On to `Cc1cc(Nc2ncnc3cnc4c(c23)OC[C@H]2COCCN42)ccc1Oc1ccc2c(c1)ncn2C` [Compound 122, (R)—N-(3-methyl-4-((1-methyl-1H-benzo[d]imidazol-5-yl)oxy)phenyl)-6a,7,9,10-tetrahydro-6H-[1,4]oxazino[4,3-d]pyrimido[5′,4′:4,5]pyrido[3,2-b][1,4]oxazin-4-amine], for which the GI50 on Ba/F3 ERBB2 YVMA worked out at 30.9 nM. The IC50 in test [1] is 26.4 nM; in test [2] it was greater than 10000 nM.
`Cc1cc(Nc2ncnc3ccc4c(c23)O[C@H]2CCN(C)C[C@H]2N4)ccc1Oc1ccc2c(c1)ncn2C` [Compound 125, (7aR,11aS)-9-methyl-N-(3-methyl-4-((1-methyl-1H-benzo[d]imidazol-5-yl)oxy)phenyl)-7a,8,9,10,11,11a-hexahydro-7H-pyrido[3′,4′:5,6][1,4]oxazino[2,3-f]quinazolin-1-amine]: at Ba/F3 ERBB2 YVMA, the GI50 was 164 nM. Further, the IC50 in test [1] is 58 nM; in test [2] it was greater than 10000 nM.
